Assay results taken from patent EP4745118A1, “HYDROXAMIC ACID COMPOUND OR PHARMACEUTICALLY ACCEPTABLE SALT THEREOF, AND USE THEREOF AND PREPARATION METHOD THEREFOR” (priority 2023, dated 2025).
Values after ≈ are worked out from the molar mass of the structure shown. Like-named read-outs stand apart in the source and are kept apart here.

Columns and labels:
Experiment in all cases: In vitro antibacterial activity, agar dilution method (MIC)
Assay type in all cases: cell-based
Enterobacter cloacae = tested on: Enterobacter cloacae
Protocol: According to the relevant operating procedures of the Clinical Laboratory Standards Institute (CLSI) in the United States, an antimicrobial susceptibility testing was conducted using the agar dilution method. […] The agar was allowed to solidify and set aside for later use.
(§1) The test bacteria were propagated in broth and adjusted to a turbidity of 0.5 McFarland (approximately 1-2 × 10^8 CFU/mL) using a turbidimeter before inoculation. The 0.5 McFarland bacterial solution was then diluted 10-fold in broth (approximately 1-2 × 10^7 CFU/mL). A multipoint inoculator was used to inoculate the above bacterial solution onto a series of plates containing different concentrations of drugs (with an inoculation amount of approximately 10^4 CFU per inoculation site). After incubation at a constant temperature of 35°C for 18 hours, results were observed. The minimum concentration of drugs contained in sterile growth plates was determined as the Minimal Inhibitory Concentration (MIC).

Shigella flexneri = conditions: 18 hours
Protocol: According to the relevant operating procedures of the Clinical Laboratory Standards Institute (CLSI) in the United States, an antimicrobial susceptibility testing was conducted using the agar dilution method. A 1920 µg/mL stock solution was serially diluted twofold with sterile water to obtain dilutions of 960, 480, 240, 120, 60, 30, 15, 7.5, 3.75, 1.88, 0.94, 0.47 µg/mL, and 1 mL of the dilution was taken respectively from the dilutions with different concentrations and added to a Petri dish, to which 14 mL of melted MH agar medium was added and mixed thoroughly, and the final concentration of the drug in the petri dish is 128, 64, 32, 16, 8, 4, 2, 1, 0.5, 0.25, 0.12, 0.06, and 0.03 µ g/mL, respectively. The agar was allowed to solidify and set aside for later use.
as §1

Proteus mirabilis = tested on: Proteus mirabilis
Protocol: (§2) According to the relevant operating procedures of the Clinical Laboratory Standards Institute (CLSI) in the United States, an antimicrobial susceptibility testing was conducted using the agar dilution method. […]. The agar was allowed to solidify and set aside for later use.
as §1

Enterobacter aerogenes = tested on: Enterobacter aerogenes
Protocol: as §2, §1

Proteus vulgaris = tested on: Proteus vulgaris
Protocol: as §2, §1

Citrobacter freundii = tested on: Citrobacter freundii
Protocol: as §2, §1

Serratia marcescens = tested on: Serratia marcescens
Protocol: as §2, §1

Pantoea agglomerans = tested on: Pantoea agglomerans
Protocol: as §2, §1

Klebsiella pneumoniae = conditions: agar dilution, 35°C
Protocol: as §2, §1

Escherichia coli = conditions: agar dilution, 35°C
Protocol: as §2, §1

Pseudomonas aeruginosa = tested on: Pseudomonas aeruginosa
Protocol: as §2, §1

[1] = Enterobacter cloacae CDC1000654 (NDM-1-producing), agar dilution, 35°C, 18 hours, read-out: MIC
[2] = ATCC12022, Shigella flexneri ATCC 12022, 35°C, read-out: MIC
[3] = ATCC49565, Proteus mirabilis ATCC 49565, agar dilution, 35°C, 18 hours, read-out: MIC
[4] = Klebsiella aerogenes, ATCC13048, Enterobacter aerogenes ATCC 13048, agar dilution, 35°C, 18 hours, read-out: MIC
[5] = ATCC29905, Proteus vulgaris ATCC 29905, agar dilution, 35°C, 18 hours, read-out: MIC
[6] = ATCC43864, Citrobacter freundii ATCC 43864, agar dilution, 35°C, 18 hours, read-out: MIC
[7] = ATCC21074, Serratia marcescens ATCC 21074, agar dilution, 35°C, 18 hours, read-out: MIC
[8] = ATCC27993, Pantoea agglomerans ATCC 27993, agar dilution, 35°C, 18 hours, read-out: MIC
[9] = Klebsiella pneumoniae, 18 h, Klebsiella pneumoniae 09-20 (mcr-1), 18 hours, read-out: MIC
[10] = Klebsiella pneumoniae, 18 h, Klebsiella pneumoniae 17-R27 (CRE), 18 hours, read-out: MIC
[11] = Klebsiella pneumoniae, 18 h, Klebsiella pneumoniae 18-8 (ESBLs-producing), 18 hours, read-out: MIC
[12] = Klebsiella pneumoniae, ATCC700603, 18 h, Klebsiella pneumoniae ATCC 700603 (ESBLs-producing), 18 hours, read-out: MIC
[13] = Escherichia coli, 18 h, Escherichia coli 13-43 (mcr-1), 18 hours, read-out: MIC
[14] = Escherichia coli, 18 h, Escherichia coli 17-R28 (CRE, NDM-1-producing), 18 hours, read-out: MIC
[15] = Escherichia coli, ATCC2469, 18 h, Escherichia coli ATCC 2469 (CRE, NDM-1-producing), 18 hours, read-out: MIC
[16] = Escherichia coli, ATCC35218, 18 h, Escherichia coli ATCC 35218 (ESBLs-producing), 18 hours, read-out: MIC
[17] = Pseudomonas aeruginosa PAO1, agar dilution, 35°C, 18 hours, read-out: MIC
[18] = Klebsiella pneumoniae, ATCCBAA2146, 18 h, Klebsiella pneumoniae ATCC BAA-2146 (CRE, NDM-1-producing), 18 hours

Row | Compound | MIC (Enterobacter cloacae; [1]) [µg/mL] | MIC (Shigella flexneri; [2]) [µg/mL] | MIC (Proteus mirabilis; [3]) [µg/mL] | MIC (Enterobacter aerogenes; [4]) [µg/mL] | MIC (Proteus vulgaris; [5]) [µg/mL] | MIC (Citrobacter freundii; [6]) [µg/mL] | MIC (Serratia marcescens; [7]) [µg/mL] | MIC (Pantoea agglomerans; [8]) [µg/mL] | MIC (Klebsiella pneumoniae; [9]) [µg/mL] | MIC (Klebsiella pneumoniae; [10]) [µg/mL] | MIC (Klebsiella pneumoniae; [11]) [µg/mL] | MIC (Klebsiella pneumoniae; [12]) [µg/mL] | MIC (Escherichia coli; [13]) [µg/mL] | MIC (Escherichia coli; [14]) [µg/mL] | MIC (Escherichia coli; [15]) [µg/mL] | MIC (Escherichia coli; [16]) [µg/mL] | MIC (Pseudomonas aeruginosa; [17]) [µg/mL] | MIC (Klebsiella pneumoniae; [18]) [µg/mL] | further results
1 | C[C@@H](O)[C@H]1C(=O)N2C(C(=O)O)=C(SCCN=CN)C[C@H]12 [Imipenem] | 2 (≈ 6.68 µM) | 0.12 (≈ 0.401 µM) | 1 (≈ 3.34 µM) | 0.25 (≈ 0.835 µM) | 0.25 (≈ 0.835 µM) | 0.25 (≈ 0.835 µM) | 0.5 (≈ 1.67 µM) | 0.12 (≈ 0.401 µM) | 0.12 (≈ 0.401 µM) | 0.12 (≈ 0.401 µM) | 0.12 (≈ 0.401 µM) | 0.25 (≈ 0.835 µM) | 0.12 (≈ 0.401 µM) | > 128 | 8 (≈ 26.7 µM) | 0.12 (≈ 0.401 µM) | – | – | MIC (Klebsiella pneumoniae; Klebsiella pneumoniae, ATCCBAA2146, 18 h, Klebsiella pneumoniae ATCC BAA-2146 (CRE, NDM-1-producing), 18 hours, read-out: MIC): 32 µg/mL (≈ 107 µM)
2 | Polymyxin B | – | – | – | – | – | – | – | – | – | – | – | – | – | – | – | – | – | – | MIC (Enterobacter cloacae; Enterobacter cloacae CDC1000654 (NDM-1-producing), agar dilution, 35°C, 18 hours): 2 µg/mL; MIC (Shigella flexneri; Shigella flexneri ATCC 12022, 35°C): 1 µg/mL; MIC (Proteus mirabilis; Proteus mirabilis ATCC 49565, agar dilution, 35°C, 18 hours): >128 µg/mL; MIC (Enterobacter aerogenes; Enterobacter aerogenes ATCC 13048, agar dilution, 35°C, 18 hours): 1 µg/mL; MIC (Pseudomonas aeruginosa; Pseudomonas aeruginosa PAO1, agar dilution, 35°C, 18 hours): 2 µg/mL; MIC (Proteus vulgaris; Proteus vulgaris ATCC 29905, agar dilution, 35°C, 18 hours): >128 µg/mL; MIC (Citrobacter freundii; Citrobacter freundii ATCC 43864, agar dilution, 35°C, 18 hours): 2 µg/mL; MIC (Serratia marcescens; Serratia marcescens ATCC 21074, agar dilution, 35°C, 18 hours): >128 µg/mL; MIC (Pantoea agglomerans; Pantoea agglomerans ATCC 27993, agar dilution, 35°C, 18 hours): 1 µg/mL; MIC (Klebsiella pneumoniae; Klebsiella pneumoniae 09-20 (mcr-1), 18 hours): 16 µg/mL; MIC (Klebsiella pneumoniae; Klebsiella pneumoniae 17-R27 (CRE), 18 hours): 16 µg/mL; MIC (Klebsiella pneumoniae; Klebsiella pneumoniae 18-8 (ESBLs-producing), 18 hours): 1 µg/mL; MIC (Klebsiella pneumoniae; Klebsiella pneumoniae ATCC 700603 (ESBLs-producing), 18 hours): 1 µg/mL; MIC (Klebsiella pneumoniae; Klebsiella pneumoniae ATCC BAA-2146 (CRE, NDM-1-producing), 18 hours): 1 µg/mL; MIC (Escherichia coli; Escherichia coli 13-43 (mcr-1), 18 hours): 8 µg/mL; MIC (Escherichia coli; Escherichia coli 17-R28 (CRE, NDM-1-producing), 18 hours): 0.5 µg/mL; MIC (Escherichia coli; Escherichia coli ATCC 2469 (CRE, NDM-1-producing), 18 hours): 1 µg/mL; MIC (Escherichia coli; Escherichia coli ATCC 35218 (ESBLs-producing), 18 hours): 0.5 µg/mL
3 | C[C@H]1COc2c(N3CCN(C)CC3)c(F)cc3c(=O)c(C(=O)O)cn1c23 [Levofloxacin] | 64 (≈ 177 µM) | ≤ 0.03 | 0.12 (≈ 0.332 µM) | 0.06 (≈ 0.166 µM) | ≤ 0.03 | ≤ 0.03 | 0.25 (≈ 0.692 µM) | 0.06 (≈ 0.166 µM) | 16 (≈ 44.3 µM) | 16 (≈ 44.3 µM) | 1 (≈ 2.77 µM) | 1 (≈ 2.77 µM) | 64 (≈ 177 µM) | 8 (≈ 22.1 µM) | 16 (≈ 44.3 µM) | ≤ 0.03 | 0.5 (≈ 1.38 µM) | > 128 | –
4 | CN(C)c1cc(NC(=O)CNC(C)(C)C)c(O)c2c1C[C@H]1C[C@H]3[C@H](N(C)C)C(O)=C(C(N)=O)C(=O)[C@@]3(O)C(O)=C1C2=O [Tigecycline] | – | 0.12 (≈ 0.205 µM) | – | – | – | – | – | – | – | – | 2 (≈ 3.41 µM) | 8 (≈ 13.7 µM) | – | – | – | 0.12 (≈ 0.205 µM) | – | 8 (≈ 13.7 µM) | MIC (Enterobacter cloacae; Enterobacter cloacae, 18 h): 8 µg/mL (≈ 13.7 µM); MIC (Proteus mirabilis; Proteus mirabilis, ATCC49565, 18 h): 4 µg/mL (≈ 6.83 µM); MIC (Enterobacter aerogenes; Klebsiella aerogenes, ATCC13048, 18 h): 1 µg/mL (≈ 1.71 µM); MIC (Pseudomonas aeruginosa; Pseudomonas aeruginosa, PAO1, 18 h): 16 µg/mL (≈ 27.3 µM); MIC (Proteus vulgaris; Proteus vulgaris, ATCC29905, 18 h): 2 µg/mL (≈ 3.41 µM); MIC (Citrobacter freundii; Citrobacter freundii, ATCC43864, 18 h): 1 µg/mL (≈ 1.71 µM); MIC (Serratia marcescens; Serratia marcescens, ATCC21074, 18 h): 2 µg/mL (≈ 3.41 µM); MIC (Pantoea agglomerans; Pantoea agglomerans, ATCC27993, 18 h): 0.5 µg/mL (≈ 0.854 µM); MIC (Klebsiella pneumoniae; Klebsiella pneumoniae, 18 h, Klebsiella pneumoniae 09-20 (mcr-1)): 2 µg/mL (≈ 3.41 µM); MIC (Klebsiella pneumoniae; Klebsiella pneumoniae, 18 h, Klebsiella pneumoniae 17-R27 (CRE)): 2 µg/mL (≈ 3.41 µM); MIC (Escherichia coli; Escherichia coli, 18 h, Escherichia coli 13-43 (mcr-1)): 1 µg/mL (≈ 1.71 µM); MIC (Escherichia coli; Escherichia coli, 18 h, Escherichia coli 17-R28 (CRE, NDM-1-producing)): 0.12 µg/mL (≈ 0.205 µM); MIC (Escherichia coli; Escherichia coli, ATCC2469, 18 h, Escherichia coli ATCC 2469 (CRE, NDM-1-producing), 18 hours): 0.5 µg/mL (≈ 0.854 µM)
5 | C[C@H]1[C@H](NC(=O)/C(=N\OC(C)(C)C(=O)O)c2csc(N)n2)C(=O)N1S(=O)(=O)O [Aztreonam] | – | 0.06 (≈ 0.138 µM) | ≤ 0.03 | 0.12 (≈ 0.276 µM) | ≤ 0.03 | 0.12 (≈ 0.276 µM) | 0.12 (≈ 0.276 µM) | ≤ 0.03 | 0.25 (≈ 0.574 µM) | 0.25 (≈ 0.574 µM) | 1 (≈ 2.3 µM) | 16 (≈ 36.7 µM) | 16 (≈ 36.7 µM) | 8 (≈ 18.4 µM) | 4 (≈ 9.19 µM) | ≤ 0.03 | 4 (≈ 9.19 µM) | > 128 | –
